Experimental data published in patent US7795312B2, “Method for treating abdominal discomfort” (Sucampo AG, priority 2002, dated 2010).

What was measured:
Assay type in all cases: in vivo, human
[1] = test system: patients with occasional constipation; experiment: Abdominal discomfort score in patients with occasional constipation; details: for Abdominal discomfort score, Mean ± SD: patients with constipation, oral capsules 48 μg total daily (24 μg b.i.d.), 5-point scale 0-4, p < 0.05 vs placebo
Protocol: Patients with occasional constipation were randomly allocated to the following two treatment groups. • Group 1: Test substance (13,14-dihydro-15-keto-16,16-difluoro-PGE1) 48 μg total (24 μg/breakfast+24 μg/dinner) • Group 2: Matching placebo (placebo/breakfast+placebo/dinner) Each group underwent two weeks washout period and then began to administer oral test substance (capsules) or placebo (capsules) daily for 4 weeks. During the washout period, the patient's bowel habit was documented to confirm the existence of constipation. Constipation is defined as, on average, less than three spontaneous bowel movements per week. All existing laxative medication was withdrawn at the start of the washout period and the patients were instructed not to change their diet or lifestyle during the study.
Test substance or placebo was taken orally for a total treatment period of 4 weeks; it was taken two times a day (b.i.d) at breakfast with food and at least 8 ounces of water and at dinner with food and at least 8 ounces of water. […]

[2] = test system: patients with irritable bowel syndrome (IBS) exhibiting dyschezia; experiment: Spontaneous bowel movement frequency in patients with IBS exhibiting dyschezia; details: for Spontaneous Bowel Movement Frequency Rates, Mean ± SD: IBS patients exhibiting dyschezia
Protocol: Each group underwent two weeks washout period and then began to administer oral test substance (capsules) or placebo (capsules) daily for 4 weeks. Test substance or placebo was taken two times a day (b.i.d) at breakfast with food and at least 8 ounces of water and at dinner with food and at least 8 ounces of water. After 3 consecutive days of not having spontaneous bowel movement, the investigator could prescribe to the patient 10 mg bisacodyl suppository as a rescue medication. If this was not effective, Fleet® enema could be used. During the study period, each patient documented bowel activity. A spontaneous bowel movement was defined as any bowel movement except for that occurred within 24 hours after the rescue medication. Frequency of spontaneous bowel movements at Baseline, Weeks 1, 2, 3 and 4 were analyzed.

[3] = test system: patients with irritable bowel syndrome (IBS); experiment: Abdominal bloating score in patients with irritable bowel syndrome; details: for Abdominal bloating score, Mean ± SD: IBS patients
Protocol: (§1) Patients with irritable bowel syndrome (IBS) were randomly allocated to the following two treatment groups. • Group 1: Test substance (13,14-dihydro-15-keto-16,16-difluoro-PGE1) 48 μg total (24 μg/breakfast+24 μg/dinner) • Group 2: Matching placebo (placebo/breakfast+placebo/dinner)
(§2) Each group underwent two weeks washout period and then began to administer oral test substance (capsules) or placebo (capsules) daily for 4 weeks. Test substance or placebo was taken two times a day (b.i.d) at breakfast with food and at least 8 ounces of water and at dinner with food and at least 8 ounces of water. The patients were asked to evaluate abdominal bloating upon waking in the morning, using a 5-point scale (Score: 0=absent, 1=mild, 2=moderate, 3=severe, 4=very severe) at 4 weeks after the initiation of the treatments.

[4] = test system: patients with irritable bowel syndrome (IBS); experiment: Abdominal discomfort score in patients with irritable bowel syndrome; details: for Abdominal discomfort score, Mean ± SD: IBS patients
Protocol: as §1
as §2, with “Patients” for “The patients”, “discomfort” for “bloating”

[5] = oral 48 μg total daily for 4 weeks
[6] = Baseline, 5-point scale 0=absent to 4=very severe
[7] = Week 4, oral capsules 48 μg total daily (24 μg b.i.d.), 5-point scale 0-4, p < 0.01 vs placebo

## CCCCC(F)(F)C(=O)CCC1C(O)CC(=O)C1CCCCCCC(=O)O (stereo not shown) [Test Substance, 13,14-dihydro-15-keto-16,16-difluoro-PGE1]
[1]; Week 2
  Abdominal discomfort score, Mean ± SD: 1.09 ± 1.047 (116)
[1]; Week 3
  Abdominal discomfort score, Mean ± SD: 1.27 ± 1.057 (117)
[1]; Week 4
  Abdominal discomfort score, Mean ± SD: 1.22 ± 1.060 (117)
[1]; [5]
  Effect on abdominal discomfort in patients with constipation: significantly improved the abdominal discomfort
[2]; Baseline
  Spontaneous Bowel Movement Frequency Rates, Mean ± SD: 1.43 ± 0.773 (32)
[2]; Week 1, oral capsules 48 μg total daily (24 μg b.i.d.), p < 0.01 vs placebo
  Spontaneous Bowel Movement Frequency Rates, Mean ± SD: 6.50 ± 4.108 (32)
[2]; Week 2, oral capsules 48 μg total daily (24 μg b.i.d.), p < 0.01 vs placebo
  Spontaneous Bowel Movement Frequency Rates, Mean ± SD: 5.58 ± 4.003 (32)
[2]; Week 3, oral capsules 48 μg total daily (24 μg b.i.d.), p < 0.01 vs placebo
  Spontaneous Bowel Movement Frequency Rates, Mean ± SD: 5.93 ± 4.775 (32)
[2]; Week 4, oral capsules 48 μg total daily (24 μg b.i.d.), p < 0.05 vs placebo
  Spontaneous Bowel Movement Frequency Rates, Mean ± SD: 5.17 ± 4.333 (32)
[2]; [5]
  Effect on spontaneous bowel movement frequency in patients with IBS exhibiting dyschezia: significantly improved the spontaneous bowel movement frequency
[3]; [6]
  Abdominal bloating score, Mean ± SD: 2.50 ± 0.916 (32)
[3]; [7]
  Abdominal bloating score, Mean ± SD: 1.74 ± 0.999 (31)
[3]; [5]
  Effect on abdominal bloating in patients with IBS: significantly improved the abdominal bloating
[4]; [6]
  Abdominal discomfort score, Mean ± SD: 2.25 ± 0.803
[4]; [7]
  Abdominal discomfort score, Mean ± SD: 1.48 ± 1.029
[4]; [5]
  Effect on abdominal discomfort in patients with IBS: significantly improved the abdominal discomfort
